Source: the NIST ThermoML archive (doi:10.1021/je0341918)

Legend:
[1] = molar heat capacity at constant pressure; conditions: 298.15 K; 101.33 kPa; Liquid; Small sample (50 mg) DSC
[2] = 101.33 kPa, Liquid
[3] = molar heat capacity at constant pressure; xn = mol fraction of the nth substance listed; conditions: 101.3 kPa, Liquid, Small sample (50 mg) DSC, x2 = 0
[4] = xn = mol fraction of the nth substance listed; conditions: 101.3 kPa, Liquid, x2 = 0

OCCCCO [1,4-butanediol]
Conditions | molar heat capacity at constant pressure [J/K/mol]
[1] | 200.9

[2]
Conditions | mass density [kg/m3] | viscosity [mPa·s]
293.15 K | 1015.76 | 90.33
298.15 K | 1012.68 | 71.15
303.15 K | 1009.54 | 55.98
308.15 K | 1006.43 | 44.44
313.15 K | 1003.37 | 35.74
318.15 K | 1000.45 | 29.11
323.15 K | 997.14 | 23.63
328.15 K | 994.02 | 19.68
333.15 K | 990.93 | 16.17
338.15 K | 987.93 | 13.65
343.15 K | 984.81 | 11.45
348.15 K | 981.7 | 9.778
353.15 K | 978.59 | 8.28
363.15 K | 972.71 | 6.213

O [water] + OCCCCO
Conditions | mass density, [4] [kg/m3] | molar heat capacity at constant pressure, [3] [J/K/mol] | viscosity, [4] [mPa·s]
293.15 K | – | 75.2 | 1.002
303.15 K | – | 75.3 | 0.797
313.15 K | – | 75.2 | 0.653
323.15 K | 988.05 | 75.2 | 0.547
333.15 K | 983.21 | 75.2 | 0.467
343.15 K | 977.79 | 75.3 | 0.405
353.15 K | 971.83 | 75.4 | 0.356
